Data from patent US12570655B2, “Cysteine covalent modifiers of AKT1 and uses thereof” (Terremoto Biosciences, Inc., priority 2023, dated 2026).
Read-outs that look alike come from different tables or passages of the source.

How the values were obtained:
Type in all cases: cell-based
[1] = system: LAPC4 prostate cancer cells; experiment: Antiproliferative effects in LAPC4 cells (CellTiter Glo); details: LAPC4 cells (AKT1 E17K allele), read-out: LAPC4 proliferation IC50
How it was run: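 Cells grown in IMDM supplemented with 12% FBS plus 1% P/S were treated for 72 h with DMSO-dissolved compounds. ATP-based luminescence was fitted to a log(inhibitor) versus response Hill model, giving IC50.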

[2] = target: T1, AKT2 (Homo sapiens, UniProt P31751); experiment: Live cell AKT2 target engagement by NanoBRET competitive probe displacement; details: HEK293 cells transfected with kinase-NanoLuciferase fusion, 2 h at 37° C.
T1 construct: expressed in transfected cells; host or cells: HEK293
T1 sequence (P31751 whole entry, the tested form may be a part): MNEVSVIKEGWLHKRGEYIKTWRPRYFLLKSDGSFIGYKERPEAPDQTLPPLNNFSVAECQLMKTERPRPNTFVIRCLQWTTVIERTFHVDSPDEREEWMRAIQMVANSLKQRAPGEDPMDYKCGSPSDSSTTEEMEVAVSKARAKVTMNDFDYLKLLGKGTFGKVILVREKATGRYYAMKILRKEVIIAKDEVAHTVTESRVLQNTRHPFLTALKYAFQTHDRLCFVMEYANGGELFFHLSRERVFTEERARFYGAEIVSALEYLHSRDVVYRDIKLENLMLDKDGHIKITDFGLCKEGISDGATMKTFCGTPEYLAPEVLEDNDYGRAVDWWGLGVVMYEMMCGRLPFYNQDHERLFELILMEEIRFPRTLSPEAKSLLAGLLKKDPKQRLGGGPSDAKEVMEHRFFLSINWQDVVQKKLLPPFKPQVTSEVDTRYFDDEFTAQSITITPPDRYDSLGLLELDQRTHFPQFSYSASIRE
How it was run: (§1)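 Live-cell competitive tracer displacement in HEK293 expressing NanoLuciferase-tagged kinase. Compound and ATP-competitive tracer (~EC50) are co-incubated 2 h at 37 °C; BRET (E600/E460) gives IC50.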

[3] = target: T2, AKT1 WT (Homo sapiens, UniProt P31749); experiment: Live cell AKT1 WT target engagement by NanoBRET competitive probe displacement; details: HEK293 cells transfected with kinase-NanoLuciferase fusion, 2 h at 37° C.
T2 construct: expressed in transfected cells; host or cells: HEK293
T2 sequence (P31749 whole entry, the tested form may be a part): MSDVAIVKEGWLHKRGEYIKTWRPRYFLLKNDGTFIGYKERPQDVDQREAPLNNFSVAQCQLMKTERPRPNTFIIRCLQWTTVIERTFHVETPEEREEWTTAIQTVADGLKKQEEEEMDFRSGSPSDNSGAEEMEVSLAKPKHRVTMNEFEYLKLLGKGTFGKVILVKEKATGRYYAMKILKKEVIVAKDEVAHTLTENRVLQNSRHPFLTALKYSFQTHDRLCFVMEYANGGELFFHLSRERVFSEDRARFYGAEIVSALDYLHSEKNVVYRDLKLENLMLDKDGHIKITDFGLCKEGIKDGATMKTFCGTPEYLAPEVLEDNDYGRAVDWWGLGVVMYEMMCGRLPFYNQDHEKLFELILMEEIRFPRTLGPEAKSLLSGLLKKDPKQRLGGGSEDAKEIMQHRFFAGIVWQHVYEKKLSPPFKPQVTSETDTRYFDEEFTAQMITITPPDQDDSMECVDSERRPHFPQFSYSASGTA
How it was run: as §1

[4] = target: T3, AKT1 E17K (Homo sapiens, UniProt P31749, E17K); experiment: Live cell AKT1 E17K target engagement by NanoBRET competitive probe displacement; details: HEK293 cells transfected with kinase-NanoLuciferase fusion, 2 h at 37° C.
T3 construct: expressed in transfected cells; host or cells: HEK293
T3 sequence (P31749 whole entry E17K, the tested form may be a part): as the sequence (P31749 whole entry, the tested form may be a part) above, with E17K counted along it
How it was run: as §1

| Structure (SMILES) | IC50 ([1]; 72 h) [nM] | IC50 [2] [nM] | IC50 [3] [nM] | IC50 [4] [nM] | IC50 ([1]; Homo sapiens, LAPC4, 72 h) [nM] |
| --- | --- | --- | --- | --- | --- |
| C=CC(=O)N1CCC(N[C@H]2CCc3cc(-n4c(-c5cccnc5N)nc5ccc(-n6cccn6)nc54)ccc32)C1 (single isomer, unassigned) [Example 57, 1-((*)-3-(((S)-5-(2-(2-aminopyridin-3-yl)-5-(1H-pyrazol-1-yl)-3H-imidazo[4,5-b]pyridin-3-yl)-2,3-dihydro-1H-inden-1-yl)amino)pyrrolidin-1-yl)prop-2-en-1-one] | 104 | 84.6 | 10.4 | 21.9 |  |
| C=CC(=O)N1CCC(N[C@H]2CCc3cc(-n4c(-c5cccnc5N)nc5ccc(-n6ccc(C)n6)nc54)ccc32)CC1 [Example 243, 1-(4-{[(1S)-5-[2-(2-aminopyridin-3-yl)-5-(3-methylpyrazol-1-yl)imidazo[4,5-b]pyridin-3-yl]-2,3-dihydro-1H-inden-1-yl]amino}piperidin-1-yl)prop-2-en-1-one] |  | 98.5 | 217 | 17.3 | 150 |
| C=CC(=O)N1CCN(NC2CCc3cc(-n4c(-c5cccnc5N)nc5ccc(-n6cccn6)nc54)ccc32)CC1 (racemic) [Example 77, 1-[4-({5-[2-(2-aminopyridin-3-yl)-5-(pyrazol-1-yl)imidazo[4,5-b]pyridin-3-yl]-2,3-dihydro-1H-inden-1-yl}amino)piperazin-1-yl]prop-2-en-1-one] |  | 346 | 17.9 | 86.3 | 247 |
| C=CC(=O)N1CCC(N[C@H]2CCCc3cc(-n4c(-c5cccnc5N)nc5ccc(-n6cccn6)nc54)ccc32)CC1 [Example 154, (S)-1-(4-((6-(2-(2-aminopyridin-3-yl)-5-(1H-pyrazol-1-yl)-3H-imidazo[4,5-b]pyridin-3-yl)-1,2,3,4-tetrahydronaphthalen-1-yl)amino)piperidin-1-yl)prop-2-en-1-one] |  | > 10000 | 301 | > 1000 | > 10000 |
| C=CC(=O)N1CCC(N[C@H]2CCc3cc(-n4c(-c5cccnc5N)nc5ccc(-n6cccn6)nc54)ccc32)C(C)C1 (single isomer, unassigned) [Example 99, 1-((3*,4*)-4-(((S)-5-(2-(2-aminopyridin-3-yl)-5-(1H-pyrazol-1-yl)-3H-imidazo[4,5-b]pyridin-3-yl)-2,3-dihydro-1H-inden-1-yl)amino)-3-methylpiperidin-1-yl)prop-2-en-1-one] | 716 | 560 | 33.4 | 89.4 |  |
| C=CC(=O)N1CCC(N[C@@H]2c3ccc(-n4c(-c5cccnc5N)nc5ccc(-n6cccn6)nc54)cc3CC2F)CC1C(F)F (single isomer, unassigned) [Example 302, 1-((2*,4*)-4-(((1R,2*)-5-(2-(2-aminopyridin-3-yl)-5-(1H-pyrazol-1-yl)-3H-imidazo[4,5-b]pyridin-3-yl)-2-fluoro-2,3-dihydro-1H-inden-1-yl)amino)-2-(difluoromethyl)piperidin-1-yl)prop-2-en-1-one] | 129 | 33.3 | 82.1 | 16.9 |  |
| C=CC(=O)N1CCC(N[C@H]2CCc3cc(-n4c(-c5cccnc5N)nc5c(OC)cc(-n6cccn6)nc54)ccc32)CC1 [Example 337, 1-(4-{[(1S)-5-[2-(2-aminopyridin-3-yl)-7-methoxy-5-(pyrazol-1-yl)imidazo[4,5-b]pyridin-3-yl]-2,3-dihydro-1H-inden-1-yl]amino}piperidin-1-yl)prop-2-en-1-one] |  | 29.4 | 30.3 | 6.33 | 99.5 |
| CC#CC(=O)Nc1ccccc1C(=O)N[C@H]1CCc2cc(-n3c(-c4cccnc4N)nc4ccc(-n5cccn5)nc43)ccc21 [Example 9, N-[(1S)-5-[2-(2-aminopyridin-3-yl)-5-(pyrazol-1-yl)imidazo[4,5-b]pyridin-3-yl]-2,3-dihydro-1H-inden-1-yl]-2-(but-2-ynamido)benzamide] |  | 440 | 21.9 | 96.9 | 528 |

More lines, in order of falling IC50 [2], values ahead:

| IC50 ([1]; 72 h) [nM] | IC50 [2] [nM] | IC50 [3] [nM] | IC50 [4] [nM] | IC50 ([1]; Homo sapiens, LAPC4, 72 h) [nM] | Structure (SMILES) |
| --- | --- | --- | --- | --- | --- |
| 422 | 942 | 32.1 | 339 |  | C=CC(=O)N1CCC(N[C@H]2CCc3cc(-n4c(-c5cccnc5N)nc5ccc(-n6cccn6)nc54)ccc32)C(OC)C1 (single isomer, unassigned) [Example 116, 1-((3*,4*)-4-(((S)-5-(2-(2-aminopyridin-3-yl)-5-(1H-pyrazol-1-yl)-3H-imidazo[4,5-b]pyridin-3-yl)-2,3-dihydro-1H-inden-1-yl)amino)-3-methoxypiperidin-1-yl)prop-2-en-1-one] |
|  | 885 | 23.6 | 185 | 814 | C=CC(=O)N1CCC(N[C@H]2CCc3cc(-n4c(-c5cccnc5N)nc5ccc(-c6cnccn6)nc54)ccc32)CC1 [Example 120, (S)-1-(4-((5-(2-(2-aminopyridin-3-yl)-5-(pyrazin-2-yl)-3H-imidazo[4,5-b]pyridin-3-yl)-2,3-dihydro-1H-inden-1-yl)amino)piperidin-1-yl)prop-2-en-1-one] |
|  | 142 | 446 | 13.8 | 310 | C=CC(=O)N1CCC(N[C@H]2CCc3cc(-n4c(-c5cccnc5N)nc5ccc(N6CC[C@@H](F)C6)nc54)ccc32)CC1 [Example 194, 1-(4-{[(1S)-5-[2-(2-aminopyridin-3-yl)-5-[(3R)-3-fluoropyrrolidin-1-yl]imidazo[4,5-b]pyridin-3-yl]-2,3-dihydro-1H-inden-1-yl]amino}piperidin-1-yl)prop-2-en-1-one] |
| 138 | 54.6 | 821 | 23.3 |  | C=CC(=O)N1CCC(N[C@@H]2c3ccc(-n4c(-c5cccnc5N)nc5ccc(-n6ccc(F)n6)nc54)cc3CC2F)C[C@H]1C (single isomer, unassigned) [Example 277, 1-((2R,4*)-4-(((1R,2*)-5-(2-(2-aminopyridin-3-yl)-5-(3-fluoro-1H-pyrazol-1-yl)-3H-imidazo[4,5-b]pyridin-3-yl)-2-fluoro-2,3-dihydro-1H-inden-1-yl)amino)-2-methylpiperidin-1-yl)prop-2-en-1-one] |
| 83.7 | 45.9 | 650 | 29.6 |  | C=CC(=O)N1CCC(N[C@H]2CCc3cc(-n4c(-c5cccnc5N)nc5ccc(-n6nccn6)nc54)ccc32)C[C@H]1C (single isomer, unassigned) [Example 262, 1-[(2R,4*)-4-{[(1S)-5-[2-(2-aminopyridin-3-yl)-5-(1,2,3-triazol-2-yl)imidazo[4,5-b]pyridin-3-yl]-2,3-dihydro-1H-inden-1-yl]amino}-2-methylpiperidin-1-yl]prop-2-en-1-one] |
